Assay results reported in US20040191926A1 (priority 2001, published 2004).

Tests used:
Assay type in all cases: biochemical
PTP1B = target: T1, PTP1B (Homo sapiens, UniProt P18031); assay: PTPase activity assay with pNPP substrate
T1 construct: PTP1B (residues 1-321) (22); made in house; host or cells: E. coli
T1 sequence (P18031 1-321): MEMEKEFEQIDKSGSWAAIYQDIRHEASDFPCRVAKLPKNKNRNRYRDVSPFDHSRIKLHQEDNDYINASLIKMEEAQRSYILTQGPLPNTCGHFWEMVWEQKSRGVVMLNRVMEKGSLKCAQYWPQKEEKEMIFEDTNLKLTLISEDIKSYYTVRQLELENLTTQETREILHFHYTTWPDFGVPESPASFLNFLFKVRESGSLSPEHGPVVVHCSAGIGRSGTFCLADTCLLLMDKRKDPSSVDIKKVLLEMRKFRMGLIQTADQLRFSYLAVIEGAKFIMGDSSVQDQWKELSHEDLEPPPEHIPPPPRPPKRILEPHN

PTPα = target: T2, PTPα (Homo sapiens, UniProt P18433); assay: Phosphatase panel, pNPP assay; conditions: at 10 μM
T2 construct: The intracellular fragment of PTPa, LAR and CD45 containing both of the PTPase domains was cleaved off the fusion protein; GST (cleaved yes); made in house

CD45 = target: T3, CD45 (Homo sapiens, UniProt P08575); assay: Phosphatase panel, pNPP assay; conditions: at 10 μM
T3 construct: The intracellular fragment of PTPa, LAR and CD45 containing both of the PTPase domains was cleaved off the fusion protein; GST (cleaved yes); made in house
T3 sequence (P08575 599-1306 limits assumed): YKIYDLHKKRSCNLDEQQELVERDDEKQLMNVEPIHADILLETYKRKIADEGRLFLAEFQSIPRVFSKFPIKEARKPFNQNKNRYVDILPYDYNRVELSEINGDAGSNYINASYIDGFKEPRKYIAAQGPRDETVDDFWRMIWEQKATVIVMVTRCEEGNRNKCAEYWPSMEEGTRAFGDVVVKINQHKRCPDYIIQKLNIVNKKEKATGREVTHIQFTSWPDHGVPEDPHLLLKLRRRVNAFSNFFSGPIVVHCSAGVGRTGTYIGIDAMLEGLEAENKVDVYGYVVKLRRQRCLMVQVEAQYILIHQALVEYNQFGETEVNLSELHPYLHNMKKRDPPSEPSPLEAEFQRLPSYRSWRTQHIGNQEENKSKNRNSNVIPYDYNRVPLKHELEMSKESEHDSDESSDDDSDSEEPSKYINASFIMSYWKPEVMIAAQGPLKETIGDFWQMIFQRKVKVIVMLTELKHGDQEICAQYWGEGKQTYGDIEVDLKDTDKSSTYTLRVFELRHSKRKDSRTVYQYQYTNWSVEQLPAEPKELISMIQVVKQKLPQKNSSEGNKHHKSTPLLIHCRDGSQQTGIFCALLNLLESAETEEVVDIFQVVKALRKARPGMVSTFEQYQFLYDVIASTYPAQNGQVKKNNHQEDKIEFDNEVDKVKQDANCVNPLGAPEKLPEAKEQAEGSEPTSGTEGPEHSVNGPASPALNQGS

VHR = target: T4, VHR (Homo sapiens, UniProt P51452); assay: Phosphatase panel, pNPP assay; conditions: at 10 μM
T4 construct: made in house; host or cells: E. coli

MKP3 = assay: Phosphatase panel, pNPP assay; conditions: at 10 μM
Stp1 = target: T5, Stp1 (Schizosaccharomyces pombe, UniProt P41893); assay: Phosphatase panel, pNPP assay; conditions: at 10 μM
T5 construct: made in house; host or cells: E. coli
T5 sequence (P41893 1-156): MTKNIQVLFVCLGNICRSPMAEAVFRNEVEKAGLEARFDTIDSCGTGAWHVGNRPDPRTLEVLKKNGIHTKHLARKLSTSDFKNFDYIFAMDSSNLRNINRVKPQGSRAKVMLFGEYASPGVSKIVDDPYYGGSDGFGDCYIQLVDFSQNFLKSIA

PP2Cα = target: T6, PP2Cα (Homo sapiens, UniProt P35813); assay: Phosphatase panel, pNPP assay; conditions: at 10 μM
T6 sequence (P35813 1-382): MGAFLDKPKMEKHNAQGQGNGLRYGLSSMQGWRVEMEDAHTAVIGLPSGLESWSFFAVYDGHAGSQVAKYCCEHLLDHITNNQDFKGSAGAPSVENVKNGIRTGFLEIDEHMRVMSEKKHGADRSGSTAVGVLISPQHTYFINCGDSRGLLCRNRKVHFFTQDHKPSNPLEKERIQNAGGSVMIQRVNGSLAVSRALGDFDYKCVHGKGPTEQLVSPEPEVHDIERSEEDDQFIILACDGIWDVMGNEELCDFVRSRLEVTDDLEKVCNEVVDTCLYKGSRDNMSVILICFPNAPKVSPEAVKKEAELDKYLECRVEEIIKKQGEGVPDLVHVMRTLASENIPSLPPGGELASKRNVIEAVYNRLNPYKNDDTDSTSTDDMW

T4 sequence (P51452 whole entry, species assumed): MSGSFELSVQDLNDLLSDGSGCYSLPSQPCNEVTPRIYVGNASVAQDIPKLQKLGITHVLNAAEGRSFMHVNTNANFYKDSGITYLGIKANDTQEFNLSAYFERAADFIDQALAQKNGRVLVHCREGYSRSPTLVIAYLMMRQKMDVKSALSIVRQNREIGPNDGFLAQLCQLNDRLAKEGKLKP

**Q.** With `NC(=O)C(Cc1ccc(C(F)(F)P(=O)(O)O)cc1)NC(=O)C(CC(=O)O)NC(=O)Cc1ccc(C(F)(F)P(=O)(O)O)cc1` (centres unmarked) [Compound 40] as the compound, how does the “preference for PTP1B versus nearly all phosphatases examined” value (PTP1B; panel of Table 2) read?
**A.** The value was “greater than three orders of magnitude”.

**Q.** What about the mode of inhibition (PTP1B; with respect to the substrate pNPP) of the same compound?
**A.** Its mode of inhibition is “competitive”.

**Q.** And the “Inhibition Potency” value (PTPα)?
**A.** The value was “No inhibition at 10 μM”.

**Q.** What about the “Inhibition Potency” value (CD45) of the same compound?
**A.** Its value is “No inhibition at 10 μM”.

**Q.** And the “Inhibition Potency” value (VHR)?
**A.** Its value is “No inhibition at 10 μM”.

**Q.** And the “Inhibition Potency” value (MKP3)?
**A.** Its value is “No inhibition at 10 μM”.

**Q.** What about the “Inhibition Potency” value (Stp1) of the same compound?
**A.** The value was “No inhibition at 10 μM”.

**Q.** What about the “Inhibition Potency” value (PP2Cα) of the same compound?
**A.** Its value is “No inhibition at 10 μM”.
